Values joined by “and” are separate entries in the source; they are usually repeats but may differ in a detail not shown here. Identical values can stand only once. Like-named read-outs stand apart in the source and are kept apart here.
What was measured:
tyrosinase = experiment: Tyrosinase inhibition assay (intracellular tyrosinase, lysate of treated melanocytes, L‐DOPA); assay type: cell-based, human; settings: cells treated 24 h, 475 nm, n = 3
Experimental: The inhibition of tyrosinase activity was assessed according to the reported method. The 6‐well plates were incubated at 37°C with human melanocyte cells at a density of 2.5×10^5 cells per well in a humidified atmosphere (5% CO2) for 24 h. Subsequently, these cells were exposed to glabridin (0.00625%, V/V) as the positive control, along with other tested compounds. Following treatment, cells were incubated at 37°C for 24 h using identical conditions. After treatment, cells in each well were rinsed with a PBS buffer solution (500 µL) and lysed with a lysate buffer (100 µL containing 0.5% sodium deoxycholate) at approximately 0°C for 1 h. The resulting cell lysate was then centrifuged at 12 000 rpm at 4°C for 20 min. The protein concentration in the supernatant was quantified by a BCA Assay Kit (Beyotime Biotechnology, China). Samples were transferred to a 96‐well plate in a total volume of 100 µL ([…] of lysate supernatant and 20 µL of 0.1% L‐DOPA) and incubated for 60 min at 37°C. The absorbance was measured at 475 nm using a Synergy multimode reader (BioTek Corporation, USA).

human melanocyte cells [1] = experiment: MTT cytotoxicity / growth inhibition in human melanocytes; assay type: cell-based; settings: 24 h, n = 3
Experimental: (§1) Human melanocytes (Batch number: MC210817; Guangdong Biocell Biotechnology Co. Ltd.) were cultured in DMEM/F12 medium supplemented with 20% FBS (Hyclone) and 100 U/mL penicillin at 37°C with 5% CO2 atmosphere.
For cytotoxicity, evaluation of peptides on human melanocyte cells was assessed using the standard MTT assay. Cells were seeded in 96‐well plates at a density of 10 000 cells per well and incubated for 12 h under standard culture conditions. […] A negative control group (culture medium containing 10% Dimethyl sulfoxide (DMSO), v/v) was included. Post‐treatment, 0.5 mg/mL MTT reagent was added to each well, followed by 4 h of incubation at 37°C. Formazan crystals formed in viable cells were dissolved in 150 µL DMSO, and absorbance was measured at 490 nm using a Synergy multimode reader (BioTek, USA). Each concentration was tested in triplicate. Statistical significance was determined via one‐way ANOVA (GraphPad Prism 5). All experiments were conducted in triplicate (n = 3).

human melanocyte cells [2] = experiment: Melanin content in melanocytes; assay type: cell-based; settings: n = 3
Experimental: as §1
Upon reaching 80%–90% confluence, human melanocyte cells were dissolved with 0.25% trypsin to create a single‐cell suspension. Then, the cells were seeded in 6‐well plates at 200 000 cells per well and cultured for 12 h in a 37°C humidified incubator (5% CO2, V/V). When the confluence of cells reached 40%–60%, they were incubated with specific peptides or the positive control for 24 h. Following the incubation period, the supernatant was removed and the adherent cells were washed with PBS before being dispersed using trypsin (700 µL/well, 0.25%). The dispersed cells were collected and centrifuged at 10 000 rpm for 10 min. The cell pellet from each well was then treated with a mixture of distilled water (200 µL), anhydrous ethanol (500 µL), and ether (500 µL). The mixture was vortexed and allowed to stand at room temperature for 20 min, followed by centrifugation at 3000 rpm for 5 min. The precipitate was dissolved in 1 mL of 1 M NaOH containing 10% DMSO, then incubated at 80°C in a water bath for 40 minutes. After incubation, the solution was transferred to a 96‐well culture plate for optical density measurement at 405 nm. Each analysis was performed in triplicate and results were expressed as mean ± standard deviation (SD).

human melanocyte cells [3] = settings: traditional skin‐lightening agent, at similar concentrations; general statement, no reference given; cited from earlier work

**Q.** For “Cyclo(Gln‐Gly‐Pro‐Gln‐Gly‐Pro) (head to tail) [CHP‐9]”, which tyrosinase inhibition rate (tyrosinase; CHP‐9 1%, lysate with 0.1% L‐DOPA 60 min 37°C) is on record?
**A.** 28.57%

**Q.** What about the cell viability (human melanocyte cells [1]; CHP‐9 across effective concentrations) of the same compound?
**A.** > 90%

**Q.** And the “cytotoxicity” value (human melanocyte cells [1]; at tested concentrations (0.0781–10 mg/mL))?
**A.** noncytotoxic to human melanocytes

**Q.** What about the “inhibitory effect on melanin production compared with glabridin” value (human melanocyte cells [2]; CHP‐9 1% versus glabridin 0.00625% v/v) of the same compound?
**A.** comparable to glabridin

**Q.** What about the “melanin content after treatment” value (human melanocyte cells [2]; CHP‐9 1%, 24 h, OD 405 nm, mean ± SD, untreated control 30.90 ± 1.13 µg/mL) of the same compound?
**A.** ~23.51 µg/mL and 23.51 ± 1.14 µg/mL

**Q.** Which “cytotoxicity” value (human melanocyte cells [3]) does the source give for `Oc1ccc(O)cc1` [hydroquinone] here?
**A.** exhibit cytotoxic effects

**Q.** For `CC1(C)C=Cc2c(ccc3c2OC[C@@H](c2ccc(O)cc2O)C3)O1` [glabridin], which tyrosinase inhibition rate (tyrosinase; glabridin 0.00625% v/v (positive control), L‐DOPA 60 min 37°C) is on record?
**A.** approximately 14%

**Q.** What about the “inhibition of melanin production” value (human melanocyte cells [2]; glabridin 0.00625% v/v, 24 h) of the same compound?
**A.** strong inhibitory effect on melanin production

**Q.** With `NC[C@H]1CC[C@H](C(=O)O)CC1` [tranexamic acid] as the compound, how does the tyrosinase inhibition rate (tyrosinase; tranexamic acid 2.5 mg/mL, L‐DOPA 60 min 37°C) read?
**A.** 10.71%

**Q.** And the “change in cell viability” value (human melanocyte cells [1]; tranexamic acid at higher concentrations (5 and 10 mg/mL), not statistically significant)?
**A.** A slight reduction in cell viability

**Q.** What about the “melanin reduction, single compounds” value (human melanocyte cells [2]; tranexamic acid 2.5 mg/mL, nonapeptide‐1 0.3% v/v, 24 h) of the same compound?
**A.** melanin‐reducing effects, though not as strongly as CHP‐9 alone

— publication PMC12430830, “Discovery of a Novel Cyclopeptide as Tyrosinase Inhibitor for Skin Lightening” (Skin Research and Technology, 2025)
